# Reference: patent US8445476B2, “Carbacephem β-lactam antibiotics” (Achaogen, Inc., priority 2007, dated 2013)
# Like-named read-outs stand apart in the source and are kept apart here.
# Assays:
# [1] = system: S. aureus ASAU001 (Susceptible Organism ATCC 29213); assay: MIC assay, S. aureus ASAU001; format: cell-based; conditions: Staphylococcus aureus, ATCC29213, read-out: MIC ASAU 001
# Protocol: (§1) The in vitro MIC for bacterial isolates may be obtained in the following manner: a test compound is incorporated into a series of two-fold dilutions in cation adjusted Mueller-Hinton broth (CAMHB). Different bacterial strains diluted to provide a uniform inoculum are added to the CAMHB containing test compounds. A well without test compound is included for each strain as a growth control. […] The procedures used in these experiments are generally those standardized by the Clinical and Laboratory Standards Institute (CLSI), as set forth in the CLSI publication entitled “M7-A7. Methods for dilution antimicrobial susceptibility tests for bacteria that grow aerobically; approved standard-seventh edition.” (2006), which is incorporated by reference as if fully set forth herein. The following exemplifies such a procedure although it is to be understood that modifications of the procedure may be implemented as required.
# (§2) Two-fold dilutions of the test compounds are prepared in CAMHB at 2× the concentration range to be tested if the compounds are soluble in aqueous solution. Alternately, dimethylsulfoxide (DMSO) is used to prepare two-fold dilutions at 10× the concentration range to be tested. Reference drugs such as cefotaxime, vancomycin or imipenem are used as positive controls. A few isolated colonies are retrieved from a pure culture prepared on an agar plate and suspended in PBS until the turbidity of the suspension matches a 0.5 McFarland standard which is equal to approximately 10^8 sCFU/mL. This solution is further diluted in CAMHB to 10^6CFU/mL if compounds are diluted in CAMHB and 5×10^5 CFU/mL if compounds are diluted in DMSO. The CAMHB plates containing the compound dilutions are combined in equal volumes with the higher density inoculum, or 10 μL of the DMSO dilutions are added to the lower density inoculum. When S. aureus is the organism being tested and the compound is oxacillin, a beta-lactam or a carbacephem compound of the present invention, 2% NaCl is added to the growth media. The plates are then incubated for 16-20 hours at 35° C. The plates are then observed to determine which concentration of the test compound is the MIC.
# [2] = system: S. aureus ASAU002 (MRSA ATCC 33591); assay: MIC assay, S. aureus ASAU002; format: cell-based; conditions: Staphylococcus aureus
# Protocol: as §1, §2
# [3] = system: Staphylococcus aureus Methicillin Resistance (MRSA) (ATCC 33591); conditions: 160 mg/kg/day, dosed 4 times per day, previously reported (Craig et al.); cited from earlier work
# [4] = system: S. aureus ASAU002 (MRSA ATCC 33591); conditions: previously reported (Craig et al.); cited from earlier work
# [5] = previously reported (Griffith et al.); cited from earlier work
# [6] = system: S. aureus ASAU1033 (MRSA, CIP, ERY, CLIN, TET, GEN resistant); assay: MIC assay, S. aureus ASAU1033; format: cell-based; conditions: Staphylococcus aureus, read-out: MIC ASAU 1033
# Protocol: as §1, §2
# [7] = system: S. aureus ASAU1028 (CA-MRSA, USA400); assay: MIC assay, S. aureus ASAU1028; format: cell-based; conditions: Staphylococcus aureus, read-out: MIC ASAU 1028
# Protocol: as §1, §2
# [8] = Pharmacokinetic study in rats; format: in vivo; conditions: male, Sprague-Dawley, rat
# Protocol: Male cannulated Sprague-Dawley rats (˜250 g) are administered test compounds by IV, PO, or SC routes. All animals are weighed prior to dose administration. Blood (˜0.25 mL) is collected by cannula transferred into microtainer tubes containing EDTA at time points 2 (I.V. animals only), 5, 15, 30, 60, 120, 240, 360, 480, 1440 minutes. After collection, the blood samples are centrifuged at approximately 1000×g at 2-8° C. for approximately 10 minutes. Each plasma specimen is collected, aliquoted into cluster tubes, and stored at ˜−20° C. until analysis.
# [9] = system: S. aureus ASAU1043 (MRSA, CIP, ERY, CLI, GEN resistant); assay: MIC assay, S. aureus ASAU1043; format: cell-based; conditions: Staphylococcus aureus, read-out: MIC ASAU 1043
# Protocol: as §1, §2
# [10] = system: S. aureus ASAU1029 (CA-MRSA, USA300); assay: MIC assay, S. aureus ASAU1029; format: cell-based; conditions: Staphylococcus aureus, read-out: MIC ASAU 1029
# Protocol: as §1, §2
# [11] = system: Staphylococcus aureus Methicillin Resistance (MRSA) (ATCC 33591); assay: Neutropenic mouse infected thigh model; format: in vivo, mice
# Protocol: Groups of 6 male specific-pathogen-free CD-1 mice weighing 22±2 g are used. Animals are rendered immunosuppressedion by two intraperitoneal injections of cyclophosphamide, the first at 150 mg/kg 4 days before infection (day −4) and the second at 100 mg/kg 1 day before infection (day −1). On day 0, animals are inoculated intramuscularly (0.1 ml/thigh) with 1×10^5 CFU/mouse of Staphylococcus aureus Methicillin Resistance (MRSA) (ATCC 33591) into right thigh. Vehicle and/or test substances are then administered (IV, SC, or PO) 2 hours later. At 26 hours after inoculation, muscle of the right thigh is harvested from each of the survival test animals. The removed muscle tissues are then homogenized in 3 to 4 ml of PBS, pH 7.4 with a ceramic mortar. Homogenates of 0.1 ml are used for serial 10-fold dilutions and plated on Muller Hinton Broth in 1.5% Bacto® Agar for CFU determination. Decrease of the CFU/g muscle of right thigh in 99 percent or more (≧99) of the animals indicates significant activity. See, e.g., Andes, D. et al., Antimicrobial Agents and Chemotherapy, 46: 1665-1670 (2002); and Griffith, D. C., et al., Antimicrobial Agents and Chemotherapy, 50: 1628-1632 (2006).
# Test compounds were dosed s.c. at 60, 120 or 240 mg/kg/day, except vancomycin at a single dose level of 220 mg/kg/day.
# [12] = S. aureus ASAU002, MRSA ATCC 33591, read-out: MIC ASAU 002
SMILES,MIC [1] [µg/mL],"MIC [2, 12] [µg/mL]",log kill in CFU count [3] [log kill],MIC [4] [µg/mL],T1/2 [5] [h],Vss [5] [L/kg],MIC [6] [µg/mL],MIC [7] [µg/mL],"MIC ([2]; strain used in the infected thigh model (ATCC 33591), read-out: MIC) [µg/mL]","time uncorrected plasma concentrations are above the MIC ([8]; in vivo, 10 mg/kg) [h]","half-life ([8]; plasma, rats, 10 mg/kg IV) [h]","Vd ([8]; plasma, rats, 10 mg/kg IV, read-out: volume of distribution Vss) [L/kg]",MIC [9] [µg/mL],MIC [10] [µg/mL],"log kill (CFU) in thigh ([11]; s.c., lowest dose of 60 mg/kg/day (TID 20 mg/kg/8 h)) [log kill]",efficacy compared with vancomycin ([11]; vancomycin 220 mg/kg/day (BID 110 mg/kg/12 h))
Nc1nnc(SC2=C(C(=O)O)N3C(=O)[C@@H](NC(=O)/C(=N\O)c4nc(N)sc4Cl)[C@H]3CC2)s1 [Comparative Compound 2],≤ 1,≤ 1,3,1,1.47,0.91,,,,,,,,,,
"NCCSCc1cnccc1SC1=C(C(=O)O)N2C(=O)[C@@H](NC(=O)/C(=N\O)c3nsc(N)n3)[C@H]2CC1 [48/1, (6R,7S,Z)-7-(2-(5-amino-1,2,4-thiadiazol-3-yl)-2-(hydroxyimino)acetamido)-3-(3-((2-aminoethylthio)methyl)pyridin-4-ylthio)-8-oxo-1-aza-bicyclo[4.2.0]oct-2-ene-2-carboxylic Acid]",≤ 1,≤ 1,,,,,1 to 8,≤ 1,1,2,1.8,1.08,1 to 8,≤ 1,1,more effective than vancomycin
"Nc1nc(/C(=N/O)C(=O)N[C@@H]2C(=O)N3C(C(=O)O)=C(Sc4cscn4)CC[C@H]23)c(Cl)s1 [35/1, (6R,7S,Z)-7-(2-(2-amino-5-chlorothiazol-4-yl)-2-(hydroxyimino)acetamido)-8-oxo-3-(thiazol-4-ylthio)-1-aza-bicyclo[4.2.0]oct-2-ene-2-carboxylic Acid]",≤ 1,> 8,,,,,> 8,1 to 8,,,,,> 8,1 to 8,,
"Cc1nc(SC2=C(C(=O)O)N3C(=O)[C@@H](NC(=O)/C(=N\O)c4nc(N)sc4Cl)[C@H]3CC2)sc1C [33/1, (6R,7S,Z)-7-(2-(2-amino-5-chlorothiazol-4-yl)-2-(hydroxyimino)acetamido)-3-(4,5-dimethylthiazol-2-ylthio)-8-oxo-1-aza-bicyclo[4.2.0]oct-2-ene-2-carboxylic Acid]",≤ 1,1 to 8,,,,,1 to 8,1 to 8,,,,,1 to 8,≤ 1,,
